Tested on: naive human CD8+ T-cells
Test: CD8+ I-MUNE® T-cell proliferation assay (tritiated thymidine incorporation, dendritic cells + CD8+ T-cells + anti-CD40)
Format: cell-based
Details: HPV E7.16 9-mer peptides, 5 μg/ml, 45 donors, 1 μg/ml anti-CD40; positive response at least 2.95 times the background
Description: Fresh human peripheral blood cells were collected from humans of unknown exposure status to HPV. These cells were tested to determine antigenic epitopes in HPV 16 and 18, as described in Example 3.
Peripheral mononuclear blood cells (stored at room temperature, no older than 24 hours) were prepared for use as follows. PBMC's were isolated from buffy coat material by centrifuging over an underlay of Lymphoprep at 1000×g for 30 minutes. The interface layer was collected and washed and counted using the Cell-Dyn 3700 System (Abbott). Then, suspensions containing 10^8 PBMC's resuspended in 30 ml of AIM-V (Invitrogen) were prepared and then allowed to adhere to plastic T-75 culture flasks for two hours. The remainder of the cells were frozen at 5×10^7 cells/ml in 45% FCS (Gibco/BRL), 45% PBS w/o Ca & Mg (Mediatech), and 10% DMSO (Sigma). After the two hour PBMC incubation, non-adherent cells were removed from the flasks. The adherent cells were cultured in the flasks with 800 units/ml recombinant human GM-CSF (R&D Systems) and 100 units/ml recombinant human IL-4 (Endogen) at 37° C., 5% CO2. On day 5 of incubation, 50 units/ml recombinant human Il-1α (Endogen) and 0.2 units/ml recombinant human TNF-α were added to the cultures. Adherent and non-adherent dendritic cells were harvested, washed, and counted on day 7, following a one-hour treatment with […] mitomycin C (Sigma) and 10 mM EDTA.
Autologous CD8+ T-cells were prepared from frozen aliquots of PBMCs. After thawing and washing in DPBS, CD8+ T-cells were isolated using a commercially available CD8 negative selection kit (Dynal), according to the manufacturer's instructions. Cells were counted using the Abbott Cell-Dyn 3700 System. The purity obtained using these methods was generally found to be greater than 90%.
This Example describes the assay system used in the present invention. The basic test system is also referred to as the “I-MUNE®” assay system. The basic I-MUNE® assay system was modified as described herein to facilitate analysis of CD8+ T-cell responses. As described in greater detail below, the modifications used in the development of the present invention involved the use of CD8 negative selection beads on PBMC (i.e., instead of CD4). In addition, when CD8 cells were resuspended, […] of a 2 ug/ml anti-CD40 solution was added, before placing the DCs and peptides in the plates (the final concentration of anti-CD40 was 1 ug/ml); and 1 ul of 1 ug/ml PHA was used as a positive control, instead of tetanus toxoid.
In 96-well, round bottom plates, autologous dendritic cells and CD8+ T-cells were combined with test peptides. More specifically, in a volume of 100 μl/well, 2×10^4 dendritic cells in AIM V were combined with individual peptides (at a final peptide concentration of 5 μg/ml and a final DMSO concentration of 0.25%). After a one-hour incubation at 37° C., 5% CO2, 2×10^5 CD8+ T-cells with 2 μg/ml anti-CD40 (eBioscience; Clone 5C3 mouse IgG1, kappa) were added to the culture for a total volume of 200 μl and a final anti-CD40 concentration of 1 μg/ml per well. Negative control wells contained dendritic cells, CD8+ T-cells and 0.25% DMSO. Positive control wells contained dendritic cells, CD8+ T-cells (at the same concentrations as the test wells) and 0.25% DMSO with 5 μg/ml PHA (Sigma) (List). In some experiments, 1 ug/ml anti-IgG1 (eBioscience; Clone P3 mouse IgG1, kappa) was used as an isotype control for comparison purposes. Individual peptides were tested in duplicate or triplicate for each donor.
After 5 days of incubation at 37° C., 5% CO2, the cultures were pulsed with 0.25 μCi/well tritiated thymidine (Perkin Elmer). After a subsequent 24 hours of incubation, plates were harvested and assessed for incorporation of the tritiated thymidine (i.e., T-cell proliferation) using a Wallac Microbeta TriLux liquid scintillation counter (Perkin Elmer). Responses were averaged over the duplicate tests performed for each specimen. […]

Sequence	Epitope Classification
DEIDGPAGO (DEIDGPAGQ; human papillomavirus) [HPV E7.16 Peptide 36, 9-mer peptide of HPV16 E7]	Moderate (“Moderate epitopes” are those epitopes that produce results that are at least two standard deviations above the mean or three times the background)
DLLMGTLGI (human papillomavirus) [HPV E7.16 Peptide 81, 9-mer peptide of HPV16 E7]	Minor (“Minor epitopes” are those that have a response rate that is at least twice the background value)
DLYCYEQLN (human papillomavirus) [HPV E7.16 Peptide 21, 9-mer peptide of HPV16 E7]	Major (a “major epitope” is defined as having a response rate at least three standard deviations above the mean background response rate)
DTPTLHEYM (human papillomavirus) [HPV E7.16 Peptide 4, 9-mer peptide of HPV16 E7]	Moderate (“Moderate epitopes” are those epitopes that produce results that are at least two standard deviations above the mean or three times the background)
EDLLMGTLG (human papillomavirus) [HPV E7.16 Peptide 80, 9-mer peptide of HPV16 E7]	Minor (“Minor epitopes” are those that have a response rate that is at least twice the background value)
GQAEPDRAH (human papillomavirus) [HPV E7.16 Peptide 43, 9-mer peptide of HPV16 E7]	Minor (“Minor epitopes” are those that have a response rate that is at least twice the background value)
HEYMLDLQP (human papillomavirus) [HPV E7.16 Peptide 9, 9-mer peptide of HPV16 E7]	Minor (“Minor epitopes” are those that have a response rate that is at least twice the background value)
IRTLEDLLM (human papillomavirus) [HPV E7.16 Peptide 76, 9-mer peptide of HPV16 E7]	Minor (“Minor epitopes” are those that have a response rate that is at least twice the background value)
IVCPICSQK [HPV E7.16 Peptide 89]	Minor (“Minor epitopes” are those that have a response rate that is at least twice the background value)
IVTFCCKCD (human papillomavirus) [HPV E7.16 Peptide 54, 9-mer peptide of HPV16 E7]	Minor (“Minor epitopes” are those that have a response rate that is at least twice the background value)
LEDLLMGTL (human papillomavirus) [HPV E7.16 Peptide 79, 9-mer peptide of HPV16 E7]	Minor (“Minor epitopes” are those that have a response rate that is at least twice the background value)
LHEYMLDLQ (human papillomavirus) [HPV E7.16 Peptide 8, 9-mer peptide of HPV16 E7]	Minor (“Minor epitopes” are those that have a response rate that is at least twice the background value)
LLMGTLGIV [HPV E7.16 Peptide 82]	Minor (“Minor epitopes” are those that have a response rate that is at least twice the background value)
LMGTLGIVC (human papillomavirus) [HPV E7.16 Peptide 83, 9-mer peptide of HPV16 E7]	Minor (“Minor epitopes” are those that have a response rate that is at least twice the background value)
MGTLGIVCP (human papillomavirus) [HPV E7.16 Peptide 84, 9-mer peptide of HPV16 E7]	Minor (“Minor epitopes” are those that have a response rate that is at least twice the background value)
MHGDTPTLH (human papillomavirus) [HPV E7.16 Peptide 1, 9-mer peptide of HPV16 E7]	Minor (“Minor epitopes” are those that have a response rate that is at least twice the background value)
TLHEYMLDL (human papillomavirus) [HPV E7.16 Peptide 7, 9-mer peptide of HPV16 E7]	Minor (“Minor epitopes” are those that have a response rate that is at least twice the background value)
TPTLHEYML (human papillomavirus) [HPV E7.16 Peptide 5, 9-mer peptide of HPV16 E7]	Minor (“Minor epitopes” are those that have a response rate that is at least twice the background value)

Same assay, conditions: HPV E7.18 9-mer peptides, 5 μg/ml, 58 donors, 1 μg/ml anti-CD40; positive response at least 2.95 times the background

Sequence	Epitope Classification
ARRAEPQRH (human papillomavirus) [HPV E7.18 Peptide 51, 9-mer peptide of HPV18 E7]	Minor (“Minor epitopes” are those that have a response rate that is at least twice the background value)
CKCEARIKL (human papillomavirus) [HPV E7.18 Peptide 66, 9-mer peptide of HPV18 E7]	Minor (“Minor epitopes” are those that have a response rate that is at least twice the background value)
PQNEIPVDL (human papillomavirus) [HPV E7.18 Peptide 17, 9-mer peptide of HPV18 E7]	Minor (“Minor epitopes” are those that have a response rate that is at least twice the background value)
RIKLVVESS (human papillomavirus) [HPV E7.18 Peptide 71, 9-mer peptide of HPV18 E7]	Minor (“Minor epitopes” are those that have a response rate that is at least twice the background value)
SFVCPWCAS (human papillomavirus) [HPV E7.18 Peptide 95, 9-mer peptide of HPV18 E7]	Minor (“Minor epitopes” are those that have a response rate that is at least twice the background value)

— patent publication US7329498B2, “HPV CD8+ T-cell epitopes” (Genencor International, Inc., priority 2003, dated 2008)
